Source: patent US20250361230A1, “LATS Inhibitors and Uses Thereof” (The USA, as Represented by the Secretary, Dept. of Heath …, priority 2022, published 2025)
pIC50: −log10 of the molar value. Where two headings read alike, the source gives them in different places.

What was measured:
[1] = target: T1, LATS1 (Homo sapiens, UniProt O95835); test: RBC HotSpot kinase assay (33P-ATP, P81 filter-binding), LATS1; assay type: biochemical; settings: read-out: LATS1 IC50
T1 sequence (O95835 1-1130): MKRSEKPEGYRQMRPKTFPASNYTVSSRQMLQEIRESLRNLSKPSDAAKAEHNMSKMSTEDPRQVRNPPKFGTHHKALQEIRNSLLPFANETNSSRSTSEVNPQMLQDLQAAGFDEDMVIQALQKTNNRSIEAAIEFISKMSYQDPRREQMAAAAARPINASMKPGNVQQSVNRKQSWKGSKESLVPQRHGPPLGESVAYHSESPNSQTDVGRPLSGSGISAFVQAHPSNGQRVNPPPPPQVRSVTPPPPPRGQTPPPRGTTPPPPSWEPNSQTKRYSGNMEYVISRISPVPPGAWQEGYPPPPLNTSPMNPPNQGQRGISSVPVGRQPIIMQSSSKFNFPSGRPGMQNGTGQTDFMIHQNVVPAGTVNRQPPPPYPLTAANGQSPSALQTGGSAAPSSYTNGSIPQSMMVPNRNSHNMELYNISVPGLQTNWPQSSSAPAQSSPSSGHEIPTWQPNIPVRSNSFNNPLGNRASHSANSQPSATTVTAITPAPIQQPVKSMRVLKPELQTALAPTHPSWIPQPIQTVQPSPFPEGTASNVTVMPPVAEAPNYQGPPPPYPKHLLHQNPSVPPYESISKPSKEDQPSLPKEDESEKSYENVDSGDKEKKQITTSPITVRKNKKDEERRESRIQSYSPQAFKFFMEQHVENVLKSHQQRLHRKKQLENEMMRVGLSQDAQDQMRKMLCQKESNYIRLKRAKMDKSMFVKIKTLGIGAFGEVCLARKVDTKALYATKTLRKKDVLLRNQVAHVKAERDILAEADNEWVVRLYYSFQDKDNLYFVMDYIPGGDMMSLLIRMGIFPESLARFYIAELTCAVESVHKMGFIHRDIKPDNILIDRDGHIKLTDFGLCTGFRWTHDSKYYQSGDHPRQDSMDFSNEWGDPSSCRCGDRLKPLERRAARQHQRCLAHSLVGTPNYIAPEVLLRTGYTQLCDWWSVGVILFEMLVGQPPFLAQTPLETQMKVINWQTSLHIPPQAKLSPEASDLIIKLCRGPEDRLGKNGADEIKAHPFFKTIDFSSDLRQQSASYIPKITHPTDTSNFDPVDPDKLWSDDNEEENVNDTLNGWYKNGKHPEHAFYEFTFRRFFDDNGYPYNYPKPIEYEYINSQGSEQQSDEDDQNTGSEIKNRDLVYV
In short: (§1)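 Radiometric 33P-ATP kinase reaction in 20 mM Hepes pH 7.5, 10 mM MgCl2, 1 mM EGTA, 0.01% Brij35, 0.02 mg/ml BSA, 0.1 mM Na3VO4, 2 mM DTT, 1% DMSO. Compound preincubated with kinase and substrate 20 min, then 2 h at room temperature; P81 filter-binding read-out. IC50 (nM) from 10-point singlet curves.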

[2] = target: AKT (Homo sapiens, UniProt P31749); test: RBC HotSpot kinase assay (33P-ATP, P81 filter-binding), AKT; assay type: biochemical; settings: read-out: AKT IC50
In short: as §1

[3] = Table 32, biochemical kinase assay
[4] = Table 28, biochemical kinase assay

Chain of AKT (P31749 whole entry): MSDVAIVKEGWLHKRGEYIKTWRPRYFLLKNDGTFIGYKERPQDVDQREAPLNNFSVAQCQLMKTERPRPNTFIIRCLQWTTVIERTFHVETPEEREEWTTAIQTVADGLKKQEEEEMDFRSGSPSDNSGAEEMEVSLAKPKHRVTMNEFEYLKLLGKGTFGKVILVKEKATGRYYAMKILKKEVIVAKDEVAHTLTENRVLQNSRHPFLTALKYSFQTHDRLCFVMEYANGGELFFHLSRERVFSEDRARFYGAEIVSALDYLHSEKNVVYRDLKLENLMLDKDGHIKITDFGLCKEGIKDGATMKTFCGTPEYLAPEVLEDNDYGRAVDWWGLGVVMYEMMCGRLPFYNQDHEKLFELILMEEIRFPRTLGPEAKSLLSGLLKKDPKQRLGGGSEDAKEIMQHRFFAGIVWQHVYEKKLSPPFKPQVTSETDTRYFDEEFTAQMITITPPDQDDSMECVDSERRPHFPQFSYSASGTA

Row | Compound | pIC50 [1, 4] | pIC50 [2, 4] | also measured
1 | NCC(O)(c1ccc(Cl)cc1)c1ccc(-c2ccnc3[nH]cc(F)c23)cc1 (centres unmarked) [Compound 1002, 2-amino-1-(4-chlorophenyl)-1-(4-(3-fluoro-1H-pyrrolo[2,3-b]pyridin-4-yl)phenyl)ethan-1-ol] |  |  | pIC50 [1, 3]: 8.24; pIC50 [2, 3]: 8.34
2 | C[C@@H]1CN(C)C[C@H](C)[C@@]1(O)c1ccc(-c2ccnc3[nH]cc(F)c23)cc1 [Compound 39, (3R,4s,5S)-4-(4-(3-fluoro-1H-pyrrolo[2,3-b]pyridin-4-yl)phenyl)-1,3,5-trimethylpiperidin-4-ol] | 7.71 | 6.67 | 
3 | Cc1cc(-c2ccnc3[nH]cc(F)c23)cc(F)c1[C@@]1(O)[C@H](C)CN(C(=O)[C@@H](CO)N(C)C)C[C@@H]1C [Compound 313, (R)-2-(dimethylamino)-1-((3S,4S,5R)-4-(2-fluoro-4-(3-fluoro-1H-pyrrolo[2,3-b]pyridin-4-yl)-6-methylphenyl)-4-hydroxy-3,5-dimethylpiperidin-1-yl)-3-hydroxypropan-1-one] | 8.36 | 6.51 | 
4 | Cc1cc(-c2ccnc3[nH]cc(F)c23)cc(F)c1C1(O)CC2(CN(C3COC3)C2)C1 [Compound 139, 6-(2-fluoro-4-(3-fluoro-1H-pyrrolo[2,3-b]pyridin-4-yl)-6-methylphenyl)-2-(oxetan-3-yl)-2-azaspiro[3.3]heptan-6-ol] | 8.23 | 6.16 | 
5 | C[C@@H]1CN(C)C[C@H](C)[C@@]1(O)c1cnc(-c2ccnc3[nH]cc(F)c23)cc1Cl [Compound 22, (3S,4s,5R)-4-(4-chloro-6-(3-fluoro-1H-pyrrolo[2,3-b]pyridin-4-yl)pyridin-3-yl)-1,3,5-trimethylpiperidin-4-ol] | 8.96 | 6.30 | 
6 | Cc1cc(-c2ccnc3[nH]cc(F)c23)ccc1[C@@]1(O)[C@H](C)CN(C2CCS(=O)(=O)CC2)C[C@@H]1C [Compound 55, 4-((3R,4s, 5S)-4-(4-(3-fluoro-1H-pyrrolo[2,3-b]pyridin-4-yl)-2-methylphenyl)-4-hydroxy-3,5S-dimethylpiperidin-1-yl)tetrahydro-2H-thiopyran 1,1-dioxide] | 8.05 | 7.20 | 
7 | Cc1cc(-c2ccnc3[nH]cc(F)c23)ncc1[C@@]1(O)[C@H](C)CN(C2CCC2)C[C@@H]1C [Compound 48, (3R,4s,5S)-1-cyclobutyl-4-(6-(3-fluoro-1H-pyrrolo[2,3-b]pyridin-4-yl)-4-methylpyridin-3-yl)-3,5-dimethylpiperidin-4-ol] | 8.54 | 5.21 | 
8 | COC(=O)c1c[nH]c2nccc(-c3cc(C)c([C@@]4(O)[C@H](C)CN(C(=O)CN)C[C@@H]4C)c(F)c3)c12 [Compound 310, methyl 4-(3-fluoro-4-((3S,4s,5R)-1-glycyl-4-hydroxy-3,5-dimethylpiperidin-4-yl)-5-methylphenyl)-1H-pyrrolo[2,3-b]pyridine-3-carboxylate] | 8.29 | 5.35 | 
9 | C[C@@H]1CN(C(=O)CN)C[C@H](C)[C@@]1(O)c1c(F)cc(-c2ccnc3[nH]cc(F)c23)cc1F [Compound 58] | 7.66 | 6.21 | 
10 | CC1CC(c2ccc(-c3ccnc4[nH]ccc34)cc2)CC(C)N1 (centres unmarked) [Compound 187, 4-(4-(2,6-dimethylpiperidin-4-yl)phenyl)-1H-pyrrolo[2,3-b]pyridine] | 7.18 | 5.84 | 
11 | Cc1cc(-c2ccnc3[nH]cc(C#N)c23)cc(F)c1[C@@]1(O)[C@H](C)CN(C(=O)[C@H](CO)N(C)C)C[C@@H]1C [Compound 2023, 4-(4-((3S,4R,5R)-1-(dimethyl-L-seryl)-4-hydroxy-3,5-dimethylpiperidin-4-yl)-3-fluoro-5-methylphenyl)-1H-pyrrolo[2,3-b]pyridine-3-carbonitrile] |  |  | pIC50 ([1]; biochemical kinase inhibition): 8.36; pIC50 ([2]; biochemical kinase inhibition): 6.41
12 | C[C@@H]1CNC[C@H](C)[C@@]1(O)c1ccc(-c2ccnc3[nH]cc(F)c23)cc1Cl [Compound 1, (3S,4S,5R)-4-(2-chloro-4-(3-fluoro-1H-pyrrolo[2,3-b]pyridin-4-yl)phenyl)-3,5-dimethylpiperidin-4-ol] | 7.95 | 7.81 | 
13 | Cc1cc(-c2ccnc3[nH]cc(C#N)c23)cc(F)c1[C@@]1(O)[C@H](C)CN(C(=O)CN)C[C@@H]1C [Compound 2004, 4-(3-fluoro-4-((3S,4s,5R)-1-glycyl-4-hydroxy-3,5-dimethylpiperidin-4-yl)-5-methylphenyl)-1H-pyrrolo[2,3-b]pyridine-3-carbonitrile] |  |  | pIC50 ([1]; biochemical kinase inhibition): 8.17; pIC50 ([2]; biochemical kinase inhibition): 6.93
14 | Cc1cc(-c2ccnc3[nH]cc(F)c23)cc(F)c1[C@@]1(O)[C@H](C)CN(C(=O)CN)C[C@@H]1C [Compound 61, 2-amino-1-((3R,4s,5S)-4-(2-fluoro-4-(3-fluoro-1H-pyrrolo[2,3-b]pyridin-4-yl)-6-methylphenyl)-4-hydroxy-3,5-dimethylpiperidin-1-yl)ethan-1-one] | 8.49 | 6.71 | 
15 | Cc1cc(-c2ccnc3[nH]ccc23)ccc1CN [Compound 266, (2-methyl-4-(1H-pyrrolo[2,3-b]pyridin-4-yl)phenyl) methanamine] | 8.22 | 6.60 | 
16 | Cc1cc(-c2ccnc3[nH]cc(Cl)c23)ccc1CN [Compound 254, (4-(3-chloro-1H-pyrrolo[2,3-b]pyridin-4-yl)-2-methylphenyl) methanamine] | 8.47 | 6.94 | 
17 | NCc1ccc(-c2ccnc3[nH]cc(-c4cccnc4)c23)cc1 [Compound 245, (4-(3-(pyridin-3-yl)-1H-pyrrolo[2,3-b]pyridin-4-yl)phenyl) methanamine] | 7.92 | 6.12 | 
18 | NCc1ccc(-c2ccnc3[nH]cc(F)c23)cc1 [Compound 275, (4-(3-fluoro-1H-pyrrolo[2,3-b]pyridin-4-yl)phenyl) methanamine] | 7.89 | 6.58 | 
19 | Cc1cc(-c2ccnc3[nH]cc(C#N)c23)ccc1[C@@]1(O)[C@H](C)CN(C(=O)CN)C[C@@H]1C [Compound 2005, 4-(4-((3S,4s,5R)-1-glycyl-4-hydroxy-3,5-dimethylpiperidin-4-yl)-3-methylphenyl)-1H-pyrrolo[2,3-b]pyridine-3-carbonitrile] |  |  | pIC50 ([1]; biochemical kinase inhibition): 8.48; pIC50 ([2]; biochemical kinase inhibition): 7.66
20 | NCC(=O)NCC(O)(c1ccc(Cl)cc1)c1ccc(-c2ccnc3[nH]cc(Cl)c23)cc1 (centres unmarked) [Compound 1021, 2-amino-N-(2-(4-(3-chloro-1H-pyrrolo[2,3-b]pyridin-4-yl)phenyl)-2-(4-chlorophenyl)-2-hydroxyethyl) acetamide] |  |  | pIC50 [1, 3]: 8.43; pIC50 [2, 3]: > 9.30
21 | Cc1cc(-c2ccnc3[nH]cc(F)c23)cc(F)c1[C@@]1(O)[C@H](C)CN(C)C[C@@H]1C [Compound 304, (3S,4s,5R)-4-(2-fluoro-4-(3-fluoro-1H-pyrrolo[2,3-b]pyridin-4-yl)-6-methylphenyl)-1,3,5-trimethylpiperidin-4-ol] | 8.29 | 6.57 | 
22 | c1cc(-c2ccc(C3CC4CCC(C3)N4)cc2)c2cc[nH]c2n1 (centres unmarked) [Compound 184, 4-(4-(8-azabicyclo[3.2.1]octan-3-yl)phenyl)-1H-pyrrolo[2,3-b]pyridine] | 7.60 | 6.03 | 
23 | Cc1cc(-c2ccnc3[nH]cc(F)c23)cc(F)c1[C@@]1(O)[C@H](C)CN(C(C)C)C[C@@H]1C [Compound 305, (3S,4s,5R)-4-(2-fluoro-4-(3-fluoro-1H-pyrrolo[2,3-b]pyridin-4-yl)-6-methylphenyl)-1-isopropyl-3,5-dimethylpiperidin-4-ol] | 8.39 | 6.12 | 
24 | COC(=O)c1c[nH]c2nccc(-c3ccc(C(O)(CN)c4ccc(Cl)cc4)cc3)c12 (centres unmarked) [Compound 1004, Methyl 4-(4-(2-amino-1-(4-chlorophenyl)-1-hydroxyethyl)phenyl)-1H-pyrrolo[2,3-b]pyridine-3-carboxylate] |  |  | pIC50 [1, 3]: 8.40; pIC50 [2, 3]: 7.74
25 | NCC(O)(c1ccc(Cl)cc1)c1ccc(-c2ccnc3[nH]cc(-c4cccnc4)c23)cc1 (centres unmarked) [Compound 1007, 2-amino-1-(4-chlorophenyl)-1-(4-(3-(pyridin-3-yl)-1H-pyrrolo[2,3-b]pyridin-4-yl)phenyl)ethan-1-ol] |  |  | pIC50 [1, 3]: 8.37; pIC50 [2, 3]: 7.45
